Tested on: KMS.12.BM cells
Assay: KMS.12.BM Cell Viability Assay (Example B1)
Assay type: cell-based, human
Settings: Homo sapiens, 72 h, 3 days, Cell Titer-GLO, read-out: KMS cellular IC50
Protocol: KMS.12.BM cell line (human myeloma) was purchased from JCRB (Osaka, Japan) and maintained in RPMI with 10% FBS culture medium. To measure the cytotoxic activity of the compounds through ATP quantitation, the KMS.12.BM cells are plated in the RPMI culture medium at 5000 cells/well/per 100 μL into a 96-well polystyrene clear black tissue culture plate (Greiner-bio-one through VWR, NJ), in the presence or absence of a concentration range of test compounds. After 3 days, […] Cell Titer-GLO Luminescent (Promega, Madison, Wis.) cell culture agent is added to each well for 10 min. at room temperature to stabilize the luminescent signal. This determines the number of viable cells in culture based on quantitation of the ATP present, which signals the presence of metabolically active cells.

| SMILES | IC50 [µM] |
| --- | --- |
| Cc1noc(C)c1-c1ccc2nc(-c3ccccc3)n3c2c1OCC3c1ccccc1 (stereo not drawn) [Example 41, 7-(3,5-Dimethylisoxazol-4-yl)-2,4-diphenyl-4,5-dihydroimidazo[1,5,4-de][1,4]benzoxazine] | < 1 |
| Cc1noc(C)c1-c1cc(C#N)c2[nH]c(=O)n3c2c1OCC3c1ccccc1 (stereo not drawn) [Example 42, 7-(3,5-Dimethylisoxazol-4-yl)-2-oxo-4-phenyl-1,2,4,5-tetrahydroimidazo[1,5,4-de][1,4]benzoxazine-9-carbonitrile] | < 1 |
| Cc1noc(C)c1-c1cc(-c2ccccc2)c2[nH]c(=O)n3c2c1OCC3c1ccccc1 (stereo not drawn) [Example 43, 7-(3,5-Dimethylisoxazol-4-yl)-4,9-diphenyl-4,5-dihydroimidazo[1,5,4-de][1,4]benzoxazin-2(1H)-one] | < 1 |
| Cc1noc(C)c1-c1cc(Br)c2[nH]c(=O)n3c2c1OCC3c1ccccc1 (stereo not drawn) [Example 45, 9-Bromo-7-(3,5-Dimethylisoxazol-4-yl)-4-phenyl-4,5-dihydroimidazo[1,5,4-de][1,4]benzoxazin-2(1H)-one] | < 1 |
| Cc1noc(C)c1-c1cc(C)c2[nH]c(=O)n3c2c1OCC3c1ccccc1 (stereo not drawn) [Example 46, 7-(3,5-Dimethylisoxazol-4-yl)-9-methyl-4-phenyl-4,5-dihydroimidazo[1,5,4-de][1,4]benzoxazin-2(1H)-one] | < 1 |
| Cc1noc(C)c1-c1ccc2[nH]c(=O)n3c2c1OCC3c1ccc(F)cc1 (stereo not drawn) [Example 49, 7-(3,5-Dimethylisoxazol-4-yl)-4-(4-fluorophenyl)-4,5-dihydroimidazo[1,5,4-de][1,4]benzoxazin-2(1H)-one] | < 1 |
| Cc1noc(C)c1-c1ccc2[nH]c(=O)n3c2c1OCC3c1ccccc1OCC(=O)N(C)C (stereo not drawn) [Example 51, 2-{2-[7-(3,5-Dimethylisoxazol-4-yl)-2-oxo-1,2,4,5-tetrahydroimidazo[1,5,4-de][1,4]benzoxazin-4-yl]phenoxy}-N,N-dimethylacetamide] | < 1 |
| Cc1noc(C)c1-c1cc(-c2cccnc2)c2[nH]c(=O)n3c2c1OCC3c1ccccc1 (stereo not drawn) [Example 52, 7-(3,5-Dimethylisoxazol-4-yl)-4-phenyl-9-pyridin-3-yl-4,5-dihydroimidazo[1,5,4-de][1,4]benzoxazin-2(1H)-one] | < 1 |
| Cc1noc(C)c1-c1ccc2nc(N3CCOCC3)n3c2c1OCC3c1ccccc1 (stereo not drawn) [Example 53, 7-(3,5-Dimethylisoxazol-4-yl)-2-morpholin-4-yl-4-phenyl-4,5-dihydroimidazo[1,5,4-de][1,4]benzoxazine] | < 1 |
| Cc1noc(C)c1-c1ccc2nc(N3CCCC3)n3c2c1OCC3c1ccccc1 (stereo not drawn) [Example 54, 7-(3,5-Dimethylisoxazol-4-yl)-4-phenyl-2-pyrrolidin-1-yl-4,5-dihydroimidazo[1,5,4-de][1,4]benzoxazine] | < 1 |
| Cc1noc(C)c1-c1ccc2nc(N3CCC(O)C3)n3c2c1OCC3c1ccccc1 (stereo not drawn) [Example 55, 1-[7-(3,5-Dimethylisoxazol-4-yl)-4-phenyl-4,5-dihydroimidazo[1,5,4-de][1,4]benzoxazin-2-yl]pyrrolidin-3-ol] | < 1 |
| Cc1noc(C)c1-c1ccc2nc(N3CCCCC3)n3c2c1OCC3c1ccccc1 (stereo not drawn) [Example 56, 7-(3,5-Dimethylisoxazol-4-yl)-4-phenyl-2-piperidin-1-yl-4,5-dihydroimidazo[1,5,4-de][1,4]benzoxazine] | < 1 |
| Cc1noc(C)c1-c1ccc2nc(N3CCC(O)CC3)n3c2c1OCC3c1ccccc1 (stereo not drawn) [Example 57, 1-[7-(3,5-Dimethylisoxazol-4-yl)-4-phenyl-4,5-dihydroimidazo[1,5,4-de][1,4]benzoxazin-2-yl]piperidin-4-ol] | < 1 |
| Cc1noc(C)c1-c1ccc2nc(N3CCCC(O)C3)n3c2c1OCC3c1ccccc1 (stereo not drawn) [Example 58, 1-[7-(3,5-Dimethylisoxazol-4-yl)-4-phenyl-4,5-dihydroimidazo[1,5,4-de][1,4]benzoxazin-2-yl]piperidin-3-ol] | < 1 |
| Cc1noc(C)c1-c1ccc2nc(N3CC(O)C3)n3c2c1OCC3c1ccccc1 (stereo not drawn) [Example 59] | < 1 |

Source: patent US10464947B2 (Incyte Corporation, priority 2013, dated 2019)
